“And” between values parts separate entries of the source, which are not always exact repeats. Identical values can stand only once.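 In this assay, cells in 96-well plates receive the compound at five concentrations for 48 hours. Endpoints are linearly interpolated between the surrounding concentrations. TGI is the concentration that stops growth completely.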

The source of these data is PubChem BioAssay (NCI).

The first assay relates to MALME-3M melanoma. Put plainly: inhibition of tumour cell growth, NCI panel, 48 h.
Take `CC(C(=O)n1nnc2ccccc21)N(c1ccccc1)c1ccccc1` (configuration not stated): the TGI is over 100 µM.

Consider `CC[C@H]1CN2CCc3cc(OC)c(OC)cc3[C@@H]2C[C@@H]1C[C@H]1NCCc2cc(OC)c(OC)cc21`, for which the TGI came to 0.255 µM.

For `O=C1C=CC(=O)N1Nc1ccc([N+](=O)[O-])cc1[N+](=O)[O-]`, the TGI stood at 31.1 µM.

`O=C(NC12CC3CC(CC(C3)C1)C2)C(=O)c1c[nH]c2ccc(Cl)cc12` gave a TGI of over 100 µM.

A further assay concerns M14 melanoma. Put plainly: inhibition of tumour cell growth, NCI panel, 48 h.
In turn, `CC(C(=O)n1nnc2ccccc21)N(c1ccccc1)c1ccccc1` (configuration not stated) returned a TGI of over 100 µM.

As to `CC[C@H]1CN2CCc3cc(OC)c(OC)cc3[C@@H]2C[C@@H]1C[C@H]1NCCc2cc(OC)c(OC)cc21`, the TGI is 0.0512 µM and 0.0606 µM.

`O=C1C=CC(=O)N1Nc1ccc([N+](=O)[O-])cc1[N+](=O)[O-]` came in with a TGI of 40 µM.

With `O=C(NC12CC3CC(CC(C3)C1)C2)C(=O)c1c[nH]c2ccc(Cl)cc12`, the TGI is over 100 µM.

A further assay concerns HS 578T breast. The experiment in a line: inhibition of tumour cell growth, NCI panel, 48 h.
Regarding `CC[C@H]1CN2CCc3cc(OC)c(OC)cc3[C@@H]2C[C@@H]1C[C@H]1NCCc2cc(OC)c(OC)cc21`, the TGI is 0.0665 µM.

The next assay has as its system LOX IMVI melanoma. The experiment in a line: inhibition of tumour cell growth, NCI panel, 48 h.
Turning to `CC(C(=O)n1nnc2ccccc21)N(c1ccccc1)c1ccccc1` (configuration not stated), the TGI was over 100 µM.

As for `CC[C@H]1CN2CCc3cc(OC)c(OC)cc3[C@@H]2C[C@@H]1C[C@H]1NCCc2cc(OC)c(OC)cc21`, the TGI turned out to be 0.0205 µM.

For `O=C1C=CC(=O)N1Nc1ccc([N+](=O)[O-])cc1[N+](=O)[O-]`, the TGI is over 100 µM.

As to `O=C(NC12CC3CC(CC(C3)C1)C2)C(=O)c1c[nH]c2ccc(Cl)cc12`, the TGI is 84.8 µM.

In the next assay the test system is SNB-78 CNS. The experiment in a line: inhibition of tumour cell growth, NCI panel, 48 h.
Turning to `CC(C(=O)n1nnc2ccccc21)N(c1ccccc1)c1ccccc1` (configuration not stated), the TGI is over 100 µM.

With `O=C1C=CC(=O)N1Nc1ccc([N+](=O)[O-])cc1[N+](=O)[O-]`, the TGI is over 100 µM.

The molecule `O=C(NC12CC3CC(CC(C3)C1)C2)C(=O)c1c[nH]c2ccc(Cl)cc12` displayed a TGI of over 100 µM.

Another assay relates to HOP-62 NSCLC. Put plainly: inhibition of tumour cell growth, NCI panel, 48 h.
For the molecule `CC(C(=O)n1nnc2ccccc21)N(c1ccccc1)c1ccccc1` (configuration not stated), the TGI is over 100 µM.

As for `CC[C@H]1CN2CCc3cc(OC)c(OC)cc3[C@@H]2C[C@@H]1C[C@H]1NCCc2cc(OC)c(OC)cc21`, the TGI is 0.216 µM and 0.221 µM.

Molecule `O=C1C=CC(=O)N1Nc1ccc([N+](=O)[O-])cc1[N+](=O)[O-]` yielded a TGI of over 100 µM.

In the case of `O=C(NC12CC3CC(CC(C3)C1)C2)C(=O)c1c[nH]c2ccc(Cl)cc12`, the TGI is 66.2 µM.

Another assay concerns SR leukemia. The experiment in a line: inhibition of tumour cell growth, NCI panel, 48 h.
The molecule `CC(C(=O)n1nnc2ccccc21)N(c1ccccc1)c1ccccc1` (configuration not stated) came in with a TGI of over 100 µM.

`O=C1C=CC(=O)N1Nc1ccc([N+](=O)[O-])cc1[N+](=O)[O-]` registered a TGI of over 63.1 µM.

In turn, `O=C(NC12CC3CC(CC(C3)C1)C2)C(=O)c1c[nH]c2ccc(Cl)cc12` returned a TGI of over 100 µM.

In a further assay the test system is SNB-75 CNS. Put plainly: inhibition of tumour cell growth, NCI panel, 48 h.
For the molecule `CC(C(=O)n1nnc2ccccc21)N(c1ccccc1)c1ccccc1` (configuration not stated), the TGI was over 100 µM.

As to `O=C1C=CC(=O)N1Nc1ccc([N+](=O)[O-])cc1[N+](=O)[O-]`, the TGI was over 100 µM.

Take `O=C(NC12CC3CC(CC(C3)C1)C2)C(=O)c1c[nH]c2ccc(Cl)cc12`: the TGI is 52.1 µM.

In a further assay the test system is TK-10 renal. Put plainly: inhibition of tumour cell growth, NCI panel, 48 h.
Consider `CC(C(=O)n1nnc2ccccc21)N(c1ccccc1)c1ccccc1` (configuration not stated), for which the TGI is over 100 µM.

Consider `CC[C@H]1CN2CCc3cc(OC)c(OC)cc3[C@@H]2C[C@@H]1C[C@H]1NCCc2cc(OC)c(OC)cc21`, for which the TGI is 0.0784 µM and 0.309 µM.

Consider `O=C1C=CC(=O)N1Nc1ccc([N+](=O)[O-])cc1[N+](=O)[O-]`, for which the TGI was over 100 µM.

In another assay the test system is HCT-116 colon. Put plainly: inhibition of tumour cell growth, NCI panel, 48 h.
On to `CC(C(=O)n1nnc2ccccc21)N(c1ccccc1)c1ccccc1` (configuration not stated), for which the TGI is over 100 µM.

For `CC[C@H]1CN2CCc3cc(OC)c(OC)cc3[C@@H]2C[C@@H]1C[C@H]1NCCc2cc(OC)c(OC)cc21`, the TGI was 0.0805 µM and 0.153 µM.

With `O=C1C=CC(=O)N1Nc1ccc([N+](=O)[O-])cc1[N+](=O)[O-]`, the TGI is over 100 µM.

With `O=C(NC12CC3CC(CC(C3)C1)C2)C(=O)c1c[nH]c2ccc(Cl)cc12`, the TGI was over 100 µM.

For the next assay, the system named is OVCAR-3 ovarian. Put plainly: inhibition of tumour cell growth, NCI panel, 48 h.
`CC(C(=O)n1nnc2ccccc21)N(c1ccccc1)c1ccccc1` (configuration not stated) gave a TGI of over 100 µM.

As for `CC[C@H]1CN2CCc3cc(OC)c(OC)cc3[C@@H]2C[C@@H]1C[C@H]1NCCc2cc(OC)c(OC)cc21`, the TGI was 0.187 µM and 0.18 µM.

On to `O=C1C=CC(=O)N1Nc1ccc([N+](=O)[O-])cc1[N+](=O)[O-]`, for which the TGI is over 100 µM.

As for `O=C(NC12CC3CC(CC(C3)C1)C2)C(=O)c1c[nH]c2ccc(Cl)cc12`, the TGI amounted to 57.6 µM.

A further assay has as its system RPMI-8226 leukemia. The experiment in a line: inhibition of tumour cell growth, NCI panel, 48 h.
Regarding `CC(C(=O)n1nnc2ccccc21)N(c1ccccc1)c1ccccc1` (configuration not stated), the TGI was over 100 µM.

Take `CC[C@H]1CN2CCc3cc(OC)c(OC)cc3[C@@H]2C[C@@H]1C[C@H]1NCCc2cc(OC)c(OC)cc21`: the TGI was 0.151 µM and 0.0175 µM.

With `O=C1C=CC(=O)N1Nc1ccc([N+](=O)[O-])cc1[N+](=O)[O-]`, the TGI is over 68.7 µM.

Take `O=C(NC12CC3CC(CC(C3)C1)C2)C(=O)c1c[nH]c2ccc(Cl)cc12`: the TGI is over 100 µM.

For another assay, the system named is EKVX NSCLC. The experiment in a line: inhibition of tumour cell growth, NCI panel, 48 h.
`CC(C(=O)n1nnc2ccccc21)N(c1ccccc1)c1ccccc1` (configuration not stated) yielded a TGI of over 100 µM.

Regarding `CC[C@H]1CN2CCc3cc(OC)c(OC)cc3[C@@H]2C[C@@H]1C[C@H]1NCCc2cc(OC)c(OC)cc21`, the TGI was 0.151 µM and 0.144 µM.

Turning to `O=C1C=CC(=O)N1Nc1ccc([N+](=O)[O-])cc1[N+](=O)[O-]`, the TGI is over 100 µM.

In the case of `O=C(NC12CC3CC(CC(C3)C1)C2)C(=O)c1c[nH]c2ccc(Cl)cc12`, the TGI was over 100 µM.

The test system of a further assay is SNB-19 CNS. Put plainly: inhibition of tumour cell growth, NCI panel, 48 h.
Molecule `CC(C(=O)n1nnc2ccccc21)N(c1ccccc1)c1ccccc1` (configuration not stated) yielded a TGI of over 100 µM.

For `O=C1C=CC(=O)N1Nc1ccc([N+](=O)[O-])cc1[N+](=O)[O-]`, the TGI is over 100 µM.

In turn, `O=C(NC12CC3CC(CC(C3)C1)C2)C(=O)c1c[nH]c2ccc(Cl)cc12` came in with a TGI of over 100 µM.

The next assay has as its system A498 renal. Put plainly: inhibition of tumour cell growth, NCI panel, 48 h.
For `CC[C@H]1CN2CCc3cc(OC)c(OC)cc3[C@@H]2C[C@@H]1C[C@H]1NCCc2cc(OC)c(OC)cc21`, the TGI was 0.176 µM.

`O=C1C=CC(=O)N1Nc1ccc([N+](=O)[O-])cc1[N+](=O)[O-]` came in with a TGI of over 100 µM.

The next assay relates to DMS 114 small cell lung. Put plainly: inhibition of tumour cell growth, NCI panel, 48 h.
Turning to `CC[C@H]1CN2CCc3cc(OC)c(OC)cc3[C@@H]2C[C@@H]1C[C@H]1NCCc2cc(OC)c(OC)cc21`, the TGI was 0.136 µM and 0.0466 µM.

`O=C1C=CC(=O)N1Nc1ccc([N+](=O)[O-])cc1[N+](=O)[O-]`: the TGI is over 100 µM.
